Test results published in US5789439A, “Pharmaceutical use of forskolin derivatives” (Nippon Kayaku Kabushiki Kaisha, priority 1990, dated 1998).
Structures can show the parent of a compound that is named as a salt.

Columns and labels:
[1] = tested on: whole-stratum skin cut-off model (skin ulcer); test: Remedial effect for skin ulcer, whole-stratum skin cut-off model in rats; type: in vivo, male Wister rats; details: for Lesion reduction rate in whole-stratum skin cut-off model: 1 ml of 1 mg/ml applied daily, mean, n = 2
Procedure: The remedial effect of NKH-477 for skin ulcer was ascertained by the following test.
The abdominal region of each of the test animals--male Wister rats (10 weeks old and weighing 350-390 g) divided into groups of 2--was […] and a piece of skin of about 3 cm in diameter was cut off from said abdominal region of each test rat under anesthesia with pentobarbital (40 mg/kg, i.p.) to prepare a whole-stratum skin cut-off model, and it was used as a skin ulcer model. NKH-477 was used as the test compound (specimen) while a physiological saline was used as control. The specimen was dissolved in a physiological saline (1 mg/ml), and 1 ml of the solution was applied directly to the affected region every day, the treated part being covered with gauze fixed in position. The areas of lesion after the lapse of 1 day, 2 days, 3 days and 5 days from start of application of the specimen solution were measured by a digitizer to determine the lesion reduction rate, from which the skin ulcer curative effect of the test compound was evaluated.

[2] = tested on: collagen-induced aggregation of rabbit blood thrombocyte; test: Collagen-induced platelet aggregation inhibition, rabbit platelet rich plasma; type: cell-based
Procedure: (§1) The platelet aggregation inhibitory action of NKH-477 was examined on collagen-induced aggregation and ADP-induced aggregation of rabbit blood thrombocyte. The male Japanese white rabbits (body weight: 2.4-2.8 kg, procured from Tokyo Experimental Animals Co., Ltd.) were divided into groups of 5. The rabbits were etherized and blood was collected from the carotid artery of each rabbit. A 3.8% sodium citrate solution (final concentration: 0.38%) was added to a portion of blood collected from each group of rabbits to obtain platelet rich plasma (PRP). The remaining portion of blood was centrifuged at 3,000 r.p.m. for 15 minutes to obtain platelet poor plasma (PPP). First, permeability of PRP and PPP was determined by using an aggregometer (RMA-31 mfd. by Rika Denki Kogyo K. K.) and set at 0% and 100%, respectively. Separately from the above operation, 250 μl of PRP was placed in a cuvette and after preliminary heating at 37° C. for 2 minutes, 20 μl of specimen was added and incubated under stirring for 2 minutes. Then 10 μl of ADP (Sigma, final conc.: 3×10^-6 M) or collagen (Hormon-Chemie, final conc.: 10 μg/ml) was added and the transmission rate was measured. The maximum transmission rate observed in this operation was termed as the maximum aggregation rate. Recording in this operation was conducted on an ink-written recorder (B-381L mfd. by Rika Denki Kogyo K. K.). NKH-477 was dissolved in a physiological saline to make concentrations of 10^-8 to 10^-5 M. Forskolin dissolved in ethanol was used as control.

[3] = tested on: canine basilar artery; test: Spasmolytic effect on KCl-induced contraction, canine basilar artery ring; details: for Inhibition rate, Basilar artery: 35 mM KCl, papaverine 10^-4 M = 100%, mean ± SE, n = 3
Procedure: The canine coronary and basilar arteries were extirpated under anesthesia with pentobarbital to prepare the 3 mm wide ring preparation. Each preparation was suspended in a 10-ml organ bath filled with a Krebs-Henseleit solution by applying a static tension of 1.5 g (for the coronary artery) and 1.0 g (for the basilar artery). The nutrient solution was maintained at 37° C. and aerated with a 95% 02 /5% CO2 gas. The isometric mascular tension was measured with an FD pickup (TB-611T mfd. by Nihon Kohden K. K.) and recorded on a recorder (TI-104 mfd. by Tokai IRIKA K. K.).
After about 2 hours of equilibrium time, contraction was induced with 30 mM of KCl (for coronary artery) and 35 mM of KCl (for basilar artery), and after contraction was stabilized, NKH-477 was administered cumulatively. The spasmolytic effect was expressed as percentages of the inhibition, with the maximal inhibition obtained with papaverine hydrochloride (10^-4 M) being supposed to have shown 100% inhibition.

[4] = tested on: ADP-induced aggregation of rabbit blood thrombocyte; test: ADP-induced platelet aggregation inhibition, rabbit platelet rich plasma; type: cell-based; details: Oryctolagus cuniculus, rabbit PRP, ADP 3×10^-6 M, mean, n = 5, read-out: Platelet aggregation inhibitory action (IC50), ADP-induced aggregation
Procedure: as §1, with “NKH-477 was dissolved in a physiological saline to make concentrations of 10^-8 to 10^-5 M. Forskolin dissolved in ethanol was used as control.” left out

[5] = tested on: epinephrine-induced aggregation; test: Epinephrine-induced aggregation after intravenous administration to healthy adults; type: in vivo, healthy adults (human); details: i.v. 0.8 μg/kg/min for one hour, mean of four subjects
Procedure: A freeze-dried preparation comprising NKH-477 was dissolved in a physiological saline and administered intravenously to four healthy adults at a rate of 0.8 μg/kg/min for one hour. The degrees of ADP-induced aggregation, epinephrine-induced aggregation and collagen-induced aggregation upon end of administration were measured and compared with those before administration (each figure is the average of measurements on the four subjects).

Compound: C=C[C@@]1(C)CC(=O)[C@]2(O)[C@@]3(C)[C@@H](O)CCC(C)(C)[C@@H]3[C@H](OC(=O)CCN(C)C)[C@H](OC(C)=O)[C@@]2(C)O1 [NKH-477, 6-(3-dimethylaminopropionyl)forskolin hydrochloride]
- Lesion reduction rate in whole-stratum skin cut-off model ([1]; 1 day elapsed, control 26.4): 31.7%
- Lesion reduction rate in whole-stratum skin cut-off model ([1]; 2 days elapsed, control 36.9): 50.8%
- Lesion reduction rate in whole-stratum skin cut-off model ([1]; 3 days elapsed, control 45.5): 56.4%
- Lesion reduction rate in whole-stratum skin cut-off model ([1]; 5 days elapsed, control 66.8): 79.1%
- curing of skin ulcer ([1]; as compared with the control): curing of skin ulcer is promoted
- IC50 ([2]; Oryctolagus cuniculus, Platelet, rabbit PRP, collagen 10 μg/ml, mean, n = 5, read-out: Platelet aggregation inhibitory action (IC50), Collagen-induced aggregation): 302 nM
- platelet aggregation inhibitory action relative to forskolin ([2]; from Table 1-1 (collagen- and ADP-induced), vs forskolin): over 10 times
- IC50 ([3]; Canis lupus familiaris, KCl-induced contraction, n=3): 102 nM
- inhibitory action against KCl-induced contraction in the basilar artery ([3]; Table 3, in words): concentration-dependent inhibitory action
- Inhibition rate, Basilar artery ([3]; line 1 of 5): 3.8 ± 2.0%
- Inhibition rate, Basilar artery ([3]; line 2 of 5): 22.1 ± 3.3%
- Inhibition rate, Basilar artery ([3]; line 3 of 5): 52.0 ± 5.3%
- Inhibition rate, Basilar artery ([3]; line 4 of 5): 78.3 ± 1.2%
- Inhibition rate, Basilar artery ([3]; line 5 of 5): 89.2 ± 0.6%
- IC50 [4]: 234 nM
- Epinephrin-induced aggregation upon end of administration ([5]; before administration 47.0%): 31.8%
- Inhibition rate, Epinephrin-induced aggregation [5]: 39.6%
